Source: patent US11459358B2, “Substances for targeting various selected organs or tissues” (BioMarin Technologies B.V., priority 2016, dated 2022)
Entries after “also recorded” stand apart in the source; their conditions may differ.

What was measured:
Human control myotubes = assay: Uptake of FITC-labeled peptides in human control myotubes, fluorescence microscopy; assay type: cell-based; conditions: 2.25 μM FITC-labeled peptide
Description: Human control myoblasts (Km155.c25 cells, (Zhu et al., 2007)) were grown in skeletal muscle cell growth medium (Promocell, C-23160) supplemented with an extra 15% FBS (from, Gibco, the Netherlands) and 50 μg/ml gentamicin (PAA Laboratories) in uncoated flasks until 70-80% confluence was reached. Cells were plated in a 6 wells plate with 0.5% gelatin coated glass slides (Sigma Aldrich, the Netherlands), at a density of 1×10^5 cells per well, 48 hours prior to differentiation. Reaching 90% confluence, medium was switched to differentiation medium (Dulbecco's medium (without phenol red) with 2% FBS, 50 μg/ml gentamicin, 2% glutamax and 1% glucose (all from Gibco-BRL, the Netherlands)). Cells were allowed to differentiate for 3-5d.
(§1) Fluorescently labeled peptides were labeled using fluorescein isothiocyanate (FITC) and were obtained from Pepscan (Lelystad, the Netherlands). The FITC-label was attached to an Ahx (6-aminohexanoic acid) spacer which was added to the N-terminal end of the peptide, the C-terminal part was amidated and peptides were made circular by disulfide cyclization. Peptides according to the invention had cysteine flanking moieties wherein the flanking moieties were directly adjacent to the targeting sequences SEQ ID NOs: 14-25.
Human control myotubes and primary human cardiomyocytes were washed 2 times with PBS and incubated with 2.25 μM of FITC-labeled peptides in serum free media for 3 h at 37° C. and 5% CO2. Cells were washed 3 times with PBS and fixed with cold methanol (−20° C.) for 5 min (human control myotubes) or 10 min (human cardiomyocytes). Subsequently the glass slides were shortly air dried, and embedded on microscope slides with Vectashield hard set with 4′,6-diamidino-2-phenylindole (DAPI) mounting media (Vector laboratories). After drying 30 min, slides were analyzed with fluorescence microscopy (Leica DM5500 B) using a CCD camera (Leica DFC 360 FX). Representative pictures are shown. […]
The linear versions of the peptides comprising SEQ ID NO: 24 or SEQ ID NO: 25, in which the Cys residues were replaced with Ala residues, were labelled as described above and incubated with human control myotubes for 3 h (FIG. 3d).

human cardiomyocytes = assay: Uptake of FITC-labeled peptides in human cardiomyocytes, fluorescence microscopy; assay type: cell-based; conditions: 2.25 μM FITC-labeled peptide
Description: Immortalized human cardiomyocytes (applied biological materials, Canada) were grown in Prigrow I medium supplemented with 10% FBS and 1% P/S in collagen coated flasks. Cells were plated in collagen coated glass slides in 6 wells plates and grown until confluence prior to experiments.
as §1
Human control myotubes and primary human cardiomyocytes were washed 2 times with PBS and incubated with 2.25 μM of FITC-labeled peptides in serum free media for 3 h at 37° C. and 5% CO2. Cells were washed 3 times with PBS and fixed with cold methanol (−20° C.) for 5 min (human control myotubes) or 10 min (human cardiomyocytes). Subsequently the glass slides were shortly air dried, and embedded on microscope slides with Vectashield hard set with 4′,6-diamidino-2-phenylindole (DAPI) mounting media (Vector laboratories). After drying 30 min, slides were analyzed with fluorescence microscopy (Leica DM5500 B) using a CCD camera (Leica DFC 360 FX). Representative pictures are shown.
FITC-labeled peptides comprising SEQ ID NO:24 or SEQ ID NO: 25 were incubated at a dose of 2.25 μM, slides were imbedded in mounting media containing DAPI and analyzed with Leica microscopy using a CCD camera (Leica DFC 360 FX); Human control myotubes for 1 or 3 h (FIG. 3a) and human cardiomyocytes for 3 h (FIG. 3b).

Substance	fluorescence in the cells (Human control myotubes; 1 h)	fluorescence in the cells (Human control myotubes; 3 h)	fluorescence in the cells (Human control myotubes; 3 h, listed as SEQ ID NO:24)	fluorescence in the cells (human cardiomyocytes; 3 h)	fluorescence in the cells (human cardiomyocytes; 3 h, listed as SEQ ID NO:24)	fluorescence in the cells (Human control myotubes; 10 minutes)	fluorescence in the cells (human cardiomyocytes; 10 minutes)
SEQ ID NO: 24: FITC-Ahx N-terminal, C-terminal amide, disulfide-cyclized peptide with Cys residues flanking targeting sequence LNSLFGS (N-terminal FITC-Ahx, C-terminal amide, disulfide cyclized; Randomly generated peptide)	clear fluorescence throughout the cells and in the nuclei	Brightest fluorescence	clear fluorescence throughout the cells and in the nuclei	Brightest fluorescence	clear fluorescence throughout the cells and in the nuclei		
SEQ ID NO: 25: FITC-Ahx N-terminal, C-terminal amide, disulfide-cyclized peptide with Cys residues flanking targeting sequence QLFPLFR (N-terminal FITC-Ahx, C-terminal amide, disulfide cyclized; Randomly generated peptide)	clear fluorescence throughout the cells and in the nuclei	Brightest fluorescence; also recorded: clear fluorescence throughout the cells and in the nuclei		Brightest fluorescence; also recorded: clear fluorescence throughout the cells and in the nuclei		positive fluorescence	positive fluorescence
